The record followed here is ChEMBL document CHEMBL1132301, “Carbonic anhydrase inhibitors. Synthesis of water-soluble, topically effective, intraocular pressure-lowering aromatic/heterocyclic sulfonamides containing cationic or anionic moieties: is the tail more important than the ring?” (J Med Chem, 1999).

Broadly, the Ki is the equilibrium dissociation constant of an inhibitor or competing ligand from its target. A lower Ki goes with tighter binding. By solubility is commonly meant how much of the substance goes into solution per volume. By logD is commonly meant the decadic logarithm of the distribution of all forms, ionised or not, between an organic phase and buffer at a given pH.

Data set [1] is filed under the species Oryctolagus cuniculus. In kind it is functional, Eye.
Description: In vivo fall of IOP of normotensive rabbits after treatment with 1 drop(50 microL) of 2% solution of CA inhibitor with pH value 7.4 into the eye at 0 min
The species entered for data set [2] is Oryctolagus cuniculus. Type of data set: functional, Eye. The source holds these as a separate data set.
Description: In vivo fall of IOP of normotensive rabbits after treatment with 1 drop(50 microL) of 2% solution of CA inhibitor with pH value 8.4 into the eye at 0 min
Data set [3] is filed under the species Oryctolagus cuniculus. Type of data set: functional, Eye. The source holds these as a separate data set.
Description: In vivo fall of IOP of normotensive rabbits after treatment with 1 drop(50 microL) of 2% solution of CA inhibitor with pH value 8.4 into the eye at 30 min
For data set [4], the species on record is Oryctolagus cuniculus. In kind it is functional, Eye. The source holds these as a separate data set.
Description: In vivo fall of IOP of normotensive rabbits after treatment with 1 drop(50 microL) of 2% solution of CA inhibitor with pH value 8.4 into the eye at 90 min.
The species named for data set [5] is Oryctolagus cuniculus. In kind it is functional, Eye. The source holds these as a separate data set.
Description: In vivo fall of IOP of Glaucomatous rabbits after treatment with 1 drop(50 microL) of 2% solution of CA inhibitor with pH value 7.4 into the eye at 90 min.
The species entered for data set [6] is Oryctolagus cuniculus. Type of data set: functional, Eye. This is another data set of the same source.
Description: Drug concentration was tested in ocular fluids and tissues after 1 hour following the corneal application in normotensive albino rabbits on cornea
The species named for data set [7] is Oryctolagus cuniculus. Type of data set: functional, Eye. The source holds these as a separate data set.
Description: Drug concentration was tested in ocular fluids and tissues after 2 hour following the corneal application in normotensive albino rabbits on cilirary process
For data set [8], the species on record is Oryctolagus cuniculus. In kind it is functional, Eye. The source holds these as a separate data set.
Description: In vivo fall of IOP of normotensive rabbits after treatment with 1 drop(50 microL) of 2% solution of CA inhibitor with pH value 7.4 into the eye at 60 min
Data set [9] is filed under the species Oryctolagus cuniculus. Type of data set: functional, Eye. This is another data set of the same source.
Description: In vivo fall of IOP of Glaucomatous rabbits after treatment with 1 drop(50 microL) of 2% solution of CA inhibitor with pH value 7.4 into the eye at 30 min
The species named for data set [10] is Oryctolagus cuniculus. Type of data set: functional, Eye. The source holds these as a separate data set.
Description: In vivo fall of IOP of Glaucomatous rabbits after treatment with 1 drop(50 microL) of 2% solution of CA inhibitor with pH value 7.4 into the eye at 60 min
The species named for data set [11] is Oryctolagus cuniculus. Type of data set: functional, Eye. This is another data set of the same source.
Description: Drug concentration was tested in ocular fluids and tissues after 2 hour following the corneal application in normotensive albino rabbits on aqueous humor
For data set [12], the species on record is Oryctolagus cuniculus. In kind it is functional, Eye. The source holds these as a separate data set.
Description: Drug concentration was tested in ocular fluids and tissues after 1 hour following the corneal application in normotensive albino rabbits on cilirary process
For data set [13], the species on record is Oryctolagus cuniculus. Type of data set: functional, Eye. This is another data set of the same source.
Description: In vivo fall of IOP of normotensive rabbits after treatment with 1 drop(50 microL) of 2% solution of CA inhibitor with pH value 7.4 into the eye at 90 min.
The species named for data set [14] is Oryctolagus cuniculus. In kind it is functional, Eye. The source holds these as a separate data set.
Description: In vivo fall of IOP of Glaucomatous rabbits after treatment with 1 drop(50 microL) of 2% solution of CA inhibitor with pH value 7.4 into the eye at 0 min
The species entered for data set [15] is Oryctolagus cuniculus. Type of data set: functional, Eye. The source holds these as a separate data set.
Description: Drug concentration was tested in ocular fluids and tissues after 1 hour following the corneal application in normotensive albino rabbits on aqueous humor
Data set [16] is filed under the species Oryctolagus cuniculus. In kind it is functional, Eye. The source holds these as a separate data set.
Description: In vivo fall of IOP of normotensive rabbits after treatment with 1 drop(50 microL) of 2% solution of CA inhibitor with pH value 8.4 into the eye at 60 min
The species entered for data set [17] is Oryctolagus cuniculus. In kind it is functional, Eye. This is another data set of the same source.
Description: In vivo fall of IOP of normotensive rabbits after treatment with 1 drop(50 microL) of 2% solution of CA inhibitor with pH value 7.4 into the eye at 30 min
For data set [18], the species on record is Oryctolagus cuniculus. Type of data set: functional, Eye. The source holds these as a separate data set.
Description: Drug concentration was tested in ocular fluids and tissues after 2 hour following the corneal application in normotensive albino rabbits on cornea
Another data set addresses T1, Carbonic anhydrase 4 (Bos taurus, UniProt Q95323).
T1 sequence (Q95323 whole entry): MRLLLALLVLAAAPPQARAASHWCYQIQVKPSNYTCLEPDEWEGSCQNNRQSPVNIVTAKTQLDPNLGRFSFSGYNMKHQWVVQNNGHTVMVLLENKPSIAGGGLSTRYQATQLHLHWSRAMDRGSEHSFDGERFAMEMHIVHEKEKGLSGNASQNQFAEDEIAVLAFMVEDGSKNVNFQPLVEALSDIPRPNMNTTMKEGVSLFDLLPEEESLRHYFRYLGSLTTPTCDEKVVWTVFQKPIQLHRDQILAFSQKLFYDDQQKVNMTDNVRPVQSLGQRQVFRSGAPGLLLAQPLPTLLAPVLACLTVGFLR

Data set [19] is filed under the species Oryctolagus cuniculus.
Description: Compound was tested in vitro for corneal permeability of compound across the Denuded epithelial cornea obtained from rabbit
Another data set addresses Carbonic anhydrase 2 (Homo sapiens, UniProt P00918).
The nature of data set [20]: Compound was tested for solubility in pH buffer, at 25 degree C.(As hydrochloride salts). Type of data set: ADME.
The next data set has as its target Carbonic anhydrase 1 (Homo sapiens, UniProt P00915).
The species named for data set [21] is Oryctolagus cuniculus. The source holds these as a separate data set.
Description: Compound was tested in vitro for corneal permeability of compound across the intact cornea obtained from rabbit
Data set [22] can be described thus: Compound was tested for solubility in pH buffer, at 25 degree C.(As sodium hydroxylate salts). In kind it is ADME.
The conditions of data set [23]: octanol/water.
Description: Partition coefficient (logD) (chloroform/buffer)
Data set [24] is filed under the species Oryctolagus cuniculus. In kind it is functional, Eye. The source holds these as a separate data set.
Description: In vivo fall of IOP of Glaucomatous rabbits after treatment with 1 drop(50 microL) of 2% solution of CA inhibitor with pH value 5.5 into the eye at 60 min
Data set [25] is filed under the species Oryctolagus cuniculus. Type of data set: functional, Eye. This is another data set of the same source.
Description: In vivo fall of IOP of Glaucomatous rabbits after treatment with 1 drop(50 microL) of 2% solution of CA inhibitor with pH value 5.5 into the eye at 0 min
The species named for data set [26] is Oryctolagus cuniculus. In kind it is functional, Eye. The source holds these as a separate data set.
Description: In vivo fall of IOP of Glaucomatous rabbits after treatment with 1 drop(50 microL) of 2% solution of CA inhibitor with pH value 5.5 into the eye at 30 min
The species named for data set [27] is Oryctolagus cuniculus. In kind it is functional, Eye. The source holds these as a separate data set.
Description: In vivo fall of IOP of Glaucomatous rabbits after treatment with 1 drop(50 microL) of 2% solution of CA inhibitor with pH value 5.5 into the eye at 90 min.
For data set [28], the species on record is Oryctolagus cuniculus. In kind it is functional, Eye. This is another data set of the same source.
Description: In vivo fall of IOP of normotensive rabbits after treatment with 1 drop(50 microL) of 2% solution of CA inhibitor with pH value 5.5 into the eye at 60 min
Data set [29] is filed under the species Oryctolagus cuniculus. In kind it is functional, Eye. This is another data set of the same source.
Description: In vivo fall of IOP of normotensive rabbits after treatment with 1 drop(50 microL) of 2% solution of CA inhibitor with pH value 5.5 into the eye at 30 min
The species entered for data set [30] is Oryctolagus cuniculus. Type of data set: functional, Eye. This is another data set of the same source.
Description: In vivo fall of IOP of normotensive rabbits after treatment with 1 drop(50 microL) of 2% solution of CA inhibitor with pH value 5.5 into the eye at 90 min.
The species named for data set [31] is Oryctolagus cuniculus. Type of data set: functional, Eye. The source holds these as a separate data set.
Description: In vivo fall of IOP of normotensive rabbits after treatment with 1 drop(50 microL) of 2% solution of CA inhibitor with pH value 5.9 into the eye at 90 min.
For data set [32], the species on record is Oryctolagus cuniculus. In kind it is functional, Eye. This is another data set of the same source.
Description: In vivo fall of IOP of normotensive rabbits after treatment with 1 drop(50 microL) of 2% solution of CA inhibitor with pH value 5.9 into the eye at 60 min
The species entered for data set [33] is Oryctolagus cuniculus. In kind it is functional, Eye. This is another data set of the same source.
Description: In vivo fall of IOP of normotensive rabbits after treatment with 1 drop(50 microL) of 2% solution of CA inhibitor with pH value 5.9 into the eye at 30 min
The species named for data set [34] is Oryctolagus cuniculus. Type of data set: functional, Eye. The source holds these as a separate data set.
Description: In vivo fall of IOP of normotensive rabbits after treatment with 1 drop(50 microL) of 2% solution of CA inhibitor with pH value 5.9 into the eye at 0 min
Data set [35] has as its system Oryctolagus cuniculus. Description: In vivo fall of IOP of normotensive rabbits after treatment with 1 drop(50 microL) of […]% solution of CA inhibitor with pH value 8.5 into the eye at 60 min. Type of data set: functional.

Carbonic anhydrase 1, sequence (P00915 whole entry): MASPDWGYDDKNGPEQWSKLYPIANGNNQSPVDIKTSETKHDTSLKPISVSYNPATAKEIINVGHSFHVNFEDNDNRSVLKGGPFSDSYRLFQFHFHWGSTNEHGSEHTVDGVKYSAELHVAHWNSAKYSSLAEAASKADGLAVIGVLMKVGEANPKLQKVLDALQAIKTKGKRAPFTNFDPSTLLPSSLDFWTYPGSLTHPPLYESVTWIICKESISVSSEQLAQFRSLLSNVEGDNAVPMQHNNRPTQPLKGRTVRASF
Description for Carbonic anhydrase 1: Inhibitory activity against human cloned carbonic anhydrase isozyme I (hCA I, cytosolic form).
Description for Carbonic anhydrase 2: Inhibitory activity against human recombinant carbonic anhydrase II
Description for Carbonic anhydrase 4: Inhibitory activity against bovine lung microsomes carbonic anhydrase isozyme IV (bCA IV).

Consider `CCN(C(=O)c1cccc(C(=O)[O-])n1)C1CC(C)S(=O)(=O)c2sc(S(N)(=O)=O)cc21.[Na+]` (centres undefined), for which the “Delta IOP” value was 0 mmHg in the data set filed under Oryctolagus cuniculus [1]; 0 mmHg in the data set filed under Oryctolagus cuniculus [2]; 3.6 mmHg in the data set listed under Oryctolagus cuniculus [3]; 9.9 mmHg in the data set filed under Oryctolagus cuniculus [4]; 11.8 mmHg in the data set listed under Oryctolagus cuniculus [5]; 7.2 mmHg in the data set filed under Oryctolagus cuniculus [8]. Also, the “Delta IOP” value in the data set listed under Oryctolagus cuniculus [9] was determined as 6.5 mmHg; in the data set filed under Oryctolagus cuniculus [10], 10.1 mmHg; in the data set filed under Oryctolagus cuniculus [13], 9.8 mmHg; in the data set listed under Oryctolagus cuniculus [14] it was 0 mmHg; in the data set listed under Oryctolagus cuniculus [16], 7.7 mmHg; in the data set listed under Oryctolagus cuniculus [17], 3.5 mmHg. The Drug concentration turned out to be 113 µM in the data set filed under Oryctolagus cuniculus [6]; 10 µM in the data set listed under Oryctolagus cuniculus [7]; 39 µM in the data set filed under Oryctolagus cuniculus [11]; 47 µM in the data set listed under Oryctolagus cuniculus [12]; 278 µM in the data set filed under Oryctolagus cuniculus [15]; 44 µM in the data set listed under Oryctolagus cuniculus [18].

In the case of `CCN(C(=O)c1cccc(C(=O)O)n1)C1CC(C)S(=O)(=O)c2sc(S(N)(=O)=O)cc21` (centres undefined), the Ki on Carbonic anhydrase 4 came to 0.017 µM; on Carbonic anhydrase 2, 0.005 µM; on Carbonic anhydrase 1, 0.4 µM. Further, the figures for the Kin in the data set filed under Oryctolagus cuniculus [19] and in the data set filed under Oryctolagus cuniculus [21] were 5900 h⁻¹ and 2800 h⁻¹, respectively. Further, the solubility came out at 58 mM in data set [20] and 64 mM in data set [22]. The molecule also had a logD in data set [23] of 1.736.

As to `Cl.NS(=O)(=O)c1nnc(NC(=O)CCN2C(=O)c3cccnc3C2=O)s1`, the Drug concentration is 158 µM in the data set filed under Oryctolagus cuniculus [6]; 12 µM in the data set listed under Oryctolagus cuniculus [7]; 42 µM in the data set listed under Oryctolagus cuniculus [11]; 50 µM in the data set listed under Oryctolagus cuniculus [12]; 280 µM in the data set listed under Oryctolagus cuniculus [15]; 45 µM in the data set filed under Oryctolagus cuniculus [18].

For `CCN(C(=O)c1cccc(C(=O)O)n1)C1CC(C)S(=O)(=O)c2sc(S(N)(=O)=O)cc21.Cl` (centres undefined), the “Delta IOP” value was determined as 9.9 mmHg in the data set filed under Oryctolagus cuniculus [24]; 0 mmHg in the data set listed under Oryctolagus cuniculus [25]; 6.5 mmHg in the data set filed under Oryctolagus cuniculus [26]; 12.1 mmHg in the data set listed under Oryctolagus cuniculus [27]; 6.8 mmHg in the data set listed under Oryctolagus cuniculus [28]; 3.5 mmHg in the data set listed under Oryctolagus cuniculus [29]. For the same molecule, the “Delta IOP” value in the data set listed under Oryctolagus cuniculus [30] came to 9.1 mmHg.

Consider `NS(=O)(=O)c1nc2ccc(N3C(=O)c4cccnc4C3=O)cc2s1.O=S(=O)(O)C(F)(F)F`, for which the “Delta IOP” value in the data set listed under Oryctolagus cuniculus [31] amounted to 4 mmHg; in the data set filed under Oryctolagus cuniculus [32], 4.4 mmHg; in the data set filed under Oryctolagus cuniculus [33] it was 2 mmHg; in the data set listed under Oryctolagus cuniculus [34], 0 mmHg.

With `NS(=O)(=O)c1ccc(NC(=O)c2cccc(C(=O)[O-])n2)c(F)c1.[Na+]`, the “pDelta IOP” value in the data set with Oryctolagus cuniculus [35] came out at 4.8 mmHg.
